Assay results: patent US20090143361A1, “Pyrido[3,2-E]Pyrazines, Process For Preparing The Same, And Their Use As Inhibitors Of Phosphodiesterase 10” (ELBION GMBH, priority 2007, published 2009)
Where two headings read alike, the source gives them in different places.

Legend:
PDE10 from pig striatum = PDE10 from pig striatum (Sus scrofa, UniProt A0A287B941); assay: Inhibition of PDE10 from pig striatum ([3H]-cAMP SPA); assay type: biochemical
[1] = rats; Kostowski et al. 1976; cited from earlier work
[2] = rats; Kostowski et al. 1976; cited from earlier work; remark: listed apart in the source
[3] = molecular target: PDE10 from guinea pig striatum (Cavia porcellus, UniProt A0A286XN47); assay: Inhibition of PDE10 from guinea pig striatum ([3H]-cAMP SPA); assay type: biochemical; details: Method B
Experimental: (§1) The phosphodiesterase isoenzyme 10 (PDE10) activity was determined in preparations of rat, pig and guinea pig striatum respectively. Striatum from male Wistar rats (180-200 g), male hybrid pigs (150 kg) and male guinea pigs (CRL (HA), 500 g) respectively were collected and frozen at −70° C. At the day of preparation 0.5 g striatum was homogenized in 10 ml 50 mM Tris/Mg-buffer at 4° C. and centrifuged for one hour at 100000 g. The supernatant is called the cytosolic fraction and was removed and stored on ice. The pellet was resuspended in the same buffer, but containing 1% Triton and incubated for 45 min at 4° C. Both fractions were independently applied onto a 5 ml Hi Trap™ QHP column at the Akta-FPLC. After washing the columns the bound PDE protein was eluted with an increasing sodium chloride gradient (0 mM-500 mM sodium chloride) in 50 mM Tris/Mg-buffer at 4° C. for the cytosolic fraction and in the presence of 1% Triton for the membrane fraction. […] The fractions with PDE10-activity were pooled and frozen in aliquots until use at −20° C. PDE10 activity was determined in a one step procedure in microtiterplates. […] Nonspecific activity was tested without the enzyme. […] One hour later the mixture was measured in a liquid scintillation counter for microtiterplates (Microbeta Trilux). […]

[4] = rats; Kostowski et al. 1976; cited from earlier work; remark: listed apart in the source
human recombinant PDE10A = molecular target: T1, human recombinant PDE10A (Homo sapiens, UniProt Q9Y233); assay: Inhibition of PDE10, human recombinant PDE10A ([3H]-cAMP SPA); assay type: biochemical
T1 construct: made in house; host or cells: SF21 insect cells (baculovirus)

PDE10 from rat striatum = molecular target: T2, PDE10 from rat striatum (Rattus norvegicus, UniProt Q9QYJ6); assay: Inhibition of PDE10 from rat striatum ([3H]-cAMP SPA); assay type: biochemical; details: Method B, read-out: Km-value for the substrate
T2 construct: from tissue; host or cells: rat (Wistar) striatum, FPLC fractions
T2 sequence (Q9QYJ6 1-794): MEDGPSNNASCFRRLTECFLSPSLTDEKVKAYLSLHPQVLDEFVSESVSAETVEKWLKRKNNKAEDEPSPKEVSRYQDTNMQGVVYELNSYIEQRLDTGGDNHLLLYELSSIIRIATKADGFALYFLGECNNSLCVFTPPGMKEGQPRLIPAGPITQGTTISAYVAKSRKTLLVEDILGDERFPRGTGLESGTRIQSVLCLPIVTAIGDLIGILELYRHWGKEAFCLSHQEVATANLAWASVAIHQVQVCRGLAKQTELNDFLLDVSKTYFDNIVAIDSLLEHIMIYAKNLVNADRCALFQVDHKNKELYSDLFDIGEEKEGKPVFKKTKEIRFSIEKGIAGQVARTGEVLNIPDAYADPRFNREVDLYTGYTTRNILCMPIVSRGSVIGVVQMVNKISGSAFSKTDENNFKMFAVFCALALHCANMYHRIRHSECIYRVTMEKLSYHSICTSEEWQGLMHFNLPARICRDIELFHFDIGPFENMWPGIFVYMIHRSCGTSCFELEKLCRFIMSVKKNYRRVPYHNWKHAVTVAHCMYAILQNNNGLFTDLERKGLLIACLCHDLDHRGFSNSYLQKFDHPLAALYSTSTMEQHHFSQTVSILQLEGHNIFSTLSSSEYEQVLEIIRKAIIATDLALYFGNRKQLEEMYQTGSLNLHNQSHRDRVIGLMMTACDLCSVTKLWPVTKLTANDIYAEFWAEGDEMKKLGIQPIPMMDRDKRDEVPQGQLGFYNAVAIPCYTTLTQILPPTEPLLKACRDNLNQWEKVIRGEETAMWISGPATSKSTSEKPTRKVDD
Experimental: as §1

[5] = molecular target: Phosphodiesterase (PDE) 10A (Homo sapiens, UniProt Q9Y233); details: Soderling et al. 1999; cited from earlier work
[6] = Table 7, read-out: PDE10 pig IC50
[7] = Table 7, read-out: Human PDE10 (IC50 nM)

T1 sequence (Q9Y233 1-779 isoform Q9Y233-1): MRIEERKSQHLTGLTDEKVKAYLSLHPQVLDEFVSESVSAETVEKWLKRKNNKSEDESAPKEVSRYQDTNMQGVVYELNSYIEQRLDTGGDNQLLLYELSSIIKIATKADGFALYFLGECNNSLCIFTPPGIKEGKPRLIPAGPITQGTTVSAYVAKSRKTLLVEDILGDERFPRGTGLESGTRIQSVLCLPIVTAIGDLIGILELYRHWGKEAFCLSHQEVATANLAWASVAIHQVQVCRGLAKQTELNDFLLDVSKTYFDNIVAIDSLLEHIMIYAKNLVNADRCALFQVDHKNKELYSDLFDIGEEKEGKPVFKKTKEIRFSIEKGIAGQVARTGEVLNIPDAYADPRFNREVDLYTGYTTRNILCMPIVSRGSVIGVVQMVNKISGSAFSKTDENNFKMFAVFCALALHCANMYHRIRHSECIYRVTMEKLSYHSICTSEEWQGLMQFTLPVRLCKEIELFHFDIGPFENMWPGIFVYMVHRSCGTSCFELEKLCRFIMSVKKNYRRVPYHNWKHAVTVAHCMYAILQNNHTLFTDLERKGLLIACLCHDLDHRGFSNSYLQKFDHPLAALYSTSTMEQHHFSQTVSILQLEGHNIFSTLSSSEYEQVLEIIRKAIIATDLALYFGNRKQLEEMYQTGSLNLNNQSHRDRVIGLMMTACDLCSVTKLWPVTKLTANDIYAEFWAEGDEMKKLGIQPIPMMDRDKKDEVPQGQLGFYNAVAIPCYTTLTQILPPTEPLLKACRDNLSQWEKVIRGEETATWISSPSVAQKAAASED
Sequence of PDE10 from guinea pig striatum (A0A286XN47 1-773): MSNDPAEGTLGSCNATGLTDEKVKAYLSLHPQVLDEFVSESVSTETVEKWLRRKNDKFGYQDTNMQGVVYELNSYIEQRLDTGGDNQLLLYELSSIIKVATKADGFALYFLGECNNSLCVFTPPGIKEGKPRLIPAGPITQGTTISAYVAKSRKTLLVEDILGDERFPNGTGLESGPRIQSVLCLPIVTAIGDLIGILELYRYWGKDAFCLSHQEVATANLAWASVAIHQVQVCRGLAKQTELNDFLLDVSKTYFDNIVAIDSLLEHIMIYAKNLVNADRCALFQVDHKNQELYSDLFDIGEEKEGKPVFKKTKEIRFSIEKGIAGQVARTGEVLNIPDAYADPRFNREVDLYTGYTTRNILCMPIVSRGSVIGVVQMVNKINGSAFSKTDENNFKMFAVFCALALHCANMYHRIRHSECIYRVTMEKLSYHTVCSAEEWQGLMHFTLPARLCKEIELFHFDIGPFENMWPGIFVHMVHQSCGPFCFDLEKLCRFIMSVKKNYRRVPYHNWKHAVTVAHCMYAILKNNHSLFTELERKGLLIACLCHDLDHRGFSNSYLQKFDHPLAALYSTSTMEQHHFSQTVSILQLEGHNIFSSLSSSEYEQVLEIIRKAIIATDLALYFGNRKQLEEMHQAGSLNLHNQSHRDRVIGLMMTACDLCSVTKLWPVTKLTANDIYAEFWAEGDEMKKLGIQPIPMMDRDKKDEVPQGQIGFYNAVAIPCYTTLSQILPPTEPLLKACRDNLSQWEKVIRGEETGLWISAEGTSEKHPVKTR
Sequence of Phosphodiesterase (PDE) 10A (Q9Y233 whole entry): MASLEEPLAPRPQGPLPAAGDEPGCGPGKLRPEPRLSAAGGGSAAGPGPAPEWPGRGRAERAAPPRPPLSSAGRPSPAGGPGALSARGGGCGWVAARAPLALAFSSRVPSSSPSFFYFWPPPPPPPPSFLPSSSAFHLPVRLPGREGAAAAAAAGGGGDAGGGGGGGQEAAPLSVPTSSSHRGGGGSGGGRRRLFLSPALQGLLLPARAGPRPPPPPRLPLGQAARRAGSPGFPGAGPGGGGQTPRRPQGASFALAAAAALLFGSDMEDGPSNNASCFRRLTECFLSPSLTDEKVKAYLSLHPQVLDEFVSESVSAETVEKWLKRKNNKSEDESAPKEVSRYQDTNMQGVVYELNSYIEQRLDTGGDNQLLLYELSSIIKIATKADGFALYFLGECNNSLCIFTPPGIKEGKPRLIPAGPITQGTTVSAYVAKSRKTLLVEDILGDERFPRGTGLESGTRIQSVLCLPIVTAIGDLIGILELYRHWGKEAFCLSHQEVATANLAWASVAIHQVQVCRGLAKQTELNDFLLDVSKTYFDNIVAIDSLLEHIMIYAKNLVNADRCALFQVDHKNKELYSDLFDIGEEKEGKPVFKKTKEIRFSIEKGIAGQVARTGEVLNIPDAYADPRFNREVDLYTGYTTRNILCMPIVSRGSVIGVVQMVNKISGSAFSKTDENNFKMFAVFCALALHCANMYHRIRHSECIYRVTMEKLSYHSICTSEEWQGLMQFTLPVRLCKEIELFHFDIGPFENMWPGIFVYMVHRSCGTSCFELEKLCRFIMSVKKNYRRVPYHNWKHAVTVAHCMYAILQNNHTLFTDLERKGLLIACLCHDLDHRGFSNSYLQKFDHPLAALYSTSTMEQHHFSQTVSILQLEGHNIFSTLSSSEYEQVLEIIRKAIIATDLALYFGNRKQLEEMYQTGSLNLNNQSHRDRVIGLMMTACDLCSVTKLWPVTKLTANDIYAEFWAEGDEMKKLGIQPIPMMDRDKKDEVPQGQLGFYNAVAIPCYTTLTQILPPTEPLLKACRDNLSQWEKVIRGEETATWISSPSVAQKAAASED

Row | IC50 (PDE10 from pig striatum; [6]) [nM] | IC50 (human recombinant PDE10A; [7]) [nM] | IC50 (human recombinant PDE10A; Table 9, read-out: hPDE10 IC50) [nM] | SMILES | further results
1 | < 10 | < 10 | – | COc1ccc2nc(C)c3c(C)nc(-c4ccc(C(F)(F)F)cc4Cl)n3c2n1 [Example 20, 9-[2-Chloro-4-(trifluoromethyl)phenyl]-2-methoxy-6,7-dimethylimidazo[1,5-a]pyrido[3,2-e]pyrazine] | –
2 | – | – | 10 to 100 | COc1ccc2nc(C#N)c3c(C)nc(-c4ccccc4C)n3c2n1 [Example 165, 2-methoxy-7-methyl-9-(2-methylphenyl)imidazo[1,5-a]pyrido[3,2-e]pyrazine-6-carbonitrile] | –
3 | – | – | > 100 | COc1ccc2nc(C)c3c(C)nc(-c4cnn(CC(C)C)c4)n3c2n1 [Example 182, 2-methoxy-6,7-dimethyl-9-[1-(2-methylpropyl)-1H-pyrazol-4-yl]imidazo[1,5-yl}imidazo[1,5-a]pyrido[3,2-e]pyrazine] | –
4 | < 10 | 10 to 100 | – | COc1ccc2nc(C)c3c(C)nc(-c4cc(C)ccc4F)n3c2n1 [Example 21, 9-(2-Fluoro-5-methylphenyl)-2-methoxy-6,7-dimethylimidazo[1,5-a]pyrido[3,2-e]pyrazine] | –
5 | 10 to 100 | 10 to 100 | – | CCOc1ccc(Cl)c(-c2nc(C)c3c(C)nc4ccc(OC)nc4n23)c1 [Example 26, 9-(2-Chloro-5-ethoxyphenyl)-2-methoxy-6,7-dimethylimidazo[1,5-a]pyrido[3,2-e]pyrazine] | –
6 | – | – | 10 to 100 | Cc1ccccc1-c1nc(C)c2c(C)nc3ccc(=O)[nH]c3n12 [Example 152, 6,7-Dimethyl-9-o-tolylimidazo[1,5-a]pyrido[3,2-e]pyrazin-2(1H)-one] | –
7 | – | – | 10 to 100 | Cc1ccccc1-c1nc(C)c2c(C)nc3ccc(OCc4ccc(F)cc4)nc3n12 [Example 157, 2-[(4-fluorobenzyl)oxy]-6,7-dimethyl-9-(2-methylphenyl)imidazo[1,5-a]pyrido[3,2-e]pyrazine] | –
8 | 10 to 100 | 10 to 100 | – | COc1ccc2nc(C)c3c(C)nc(-c4cc(OC(F)(F)F)ccc4Cl)n3c2n1 [Example 24, 9-[2-Chloro-5-(trifluoromethoxy)phenyl]-2-methoxy-6,7-dimethylimidazo[1,5-]pyrido[3,2-e]pyrazine] | –
9 | – | – | 10 to 100 | COc1ccc2nc(C#N)c3c(C)nc(-c4cccc(C(N)=O)c4)n3c2n1 [Example 167, 3-(6-cyano-2-methoxy-7-methylimidazo[1,5-a]pyrido[3,2-e]pyrazin-9-yl)benzamide] | –
10 | – | – | < 10 | Cc1nc(-c2ccc(F)c(C(N)=O)c2)n2c1c(C)nc1ccc(OCC3CC3)nc12 [Example 144, 5-(2-(cyclopropylmethoxy)-6,7-dimethylimidazo[1,5-a]pyrido[3,2-e]pyrazin-9-yl)-2-fluorobenzamide] | –

Continued, molecule first:

Row | SMILES | IC50 (PDE10 from pig striatum; [6]) [nM] | IC50 (human recombinant PDE10A; [7]) [nM] | IC50 (human recombinant PDE10A; Table 9, read-out: hPDE10 IC50) [nM] | further results
11 | COc1ccc(Cc2nccc3cc(OC)c(OC)cc23)cc1OC [Papaverine, papaverine] | – | – | – | IC50 (PDE10 from pig striatum; Method A, PDE10 from striatum of pig): 103 nM; IC50 (PDE10 from pig striatum; Method B, PDE10 from striatum of pig, read-out: IC50): 110 nM; haloperidol-induced catalepsy [1]: increases haloperidol-induced catalepsy in rats; dopamine concentration in rat brain [2]: reducing dopamine concentration in rat brain; IC50 [3]: 77 nM; apomorphine-induced stereotypes [4]: reduces apomorphine-induced stereotypes in rats
12 | COc1ccc(Cl)c(-c2nc(C)c3c(C)nc4ccc(OC)nc4n23)c1 [Example 19, 9-(2-Chloro-5-methoxyphenyl)-2-methoxy-6,7-dimethylimidazo[1,5-a]pyrido[3,2-e]pyrazine] | < 10 | 10 to 100 | – | –
13 | COc1ccc2nc(C)c3c(C)nc(-c4cc(C(F)(F)F)ccc4Cl)n3c2n1 [Example 23, 9-[2-Chloro-5-(trifluoromethyl)phenyl]-2-methoxy-6,7-dimethylimidazo[1,5-a]pyrido[3,2-e]pyrazine] | < 10 | < 10 | – | –
14 | COc1ccc2nc(C)c3c(C)nc(-c4cc(C#N)ccc4Cl)n3c2n1 [Example 25, 4-Chloro-3-(2-methoxy-6,7-dimethylimidazo[1,5-a]pyrido[3,2-e]pyrazin-9-yl)benzonitrile] | < 10 | 10 to 100 | – | –
15 | Cc1ccccc1-c1nc(C)c2c(C)nc3ccc(OCC4CC4)nc3n12 [Example 123, 2-(cyclopropylmethoxy)-6,7-dimethyl-9-(2-methylphenyl)imidazo[1,5-a]pyrido[3,2-e]pyrazine] | – | – | < 10 | –
16 | Nc1nc2c(ncn2[C@@H]2O[C@@H]3COP(=O)(O)O[C@H]3[C@H]2O)c(=O)[nH]1 [cGMP] | – | – | – | Km (PDE10 from rat striatum): 1.8 µM; Km (PDE10 from pig striatum; Method B, pig striatum, read-out: Km-value for the substrate): 2.2 µM; Km [5]: 3 µM
17 | COc1ccc2nc(C#N)c3c(C)nc(-c4cc(Cl)ccc4Cl)n3c2n1 [Example 40, 9-(2,5-Dichlorophenyl)-2-methoxy-7-methylimidazo[1,5-a]pyrido[3,2-e]pyrazine-6-carbonitrile] | – | 10 to 100 | – | –
18 | Cc1cc(C(N)=O)ccc1-c1nc(C)c2c(C)nc3ccc(OCC4CC4)nc3n12 [Example 150, 4-[2-(cyclopropylmethoxy)-6,7-dimethylimidazo[1,5-a]pyrido[3,2-e]pyrazin-9-yl]-3-methylbenzamide] | – | – | < 10 | –
19 | Cc1ccncc1-c1nc(C)c2c(C)nc3ccc(=O)[nH]c3n12 [Example 159, 6,7-Dimethyl-9-(4-methylpyridin-3-yl)imidazo[1,5-a]pyrido[3,2-e]pyrazin-2(H)-one] | – | – | > 100 | –
20 | COc1ccc2nc(C)c3c(C)nc(CC#N)n3c2n1 [Example 133, (2-Methoxy-6,7-dimethylimidazo[1,5-a]pyrido[3,2-e]pyrazin-9-yl)acetonitrile] | – | – | > 100 | –
21 | COc1ccc2nc(N)c3c(C(F)(F)F)nc(-c4ccccc4C)n3c2n1 [Example 38, 2-Methoxy-9-(2-methylphenyl)-7-(trifluoromethyl)imidazo[1,5-a]pyrido[3,2-e]pyrazin-6-amine] | – | 10 to 100 | – | –
22 | COc1ccc2nc(C)c3c(C)nc(-c4cnc(F)c(C)c4)n3c2n1 [Example 33, 9-(6-Fluoro-5-methylpyridin-3-yl)-2-methoxy-6,7-dimethylimidazo[1,5-a]pyrido[3,2-e]pyrazine] | – | 10 to 100 | – | –
23 | Cc1nc(F)ccc1-c1nc(C)c2c(C)nc3ccc(OCC4CC4)nc3n12 [Example 141, 2-(cyclopropylmethoxy)-9-(6-fluoro-2-methylpyridin-3-yl)-6,7-dimethylimidazo[1,5-a]pyrido[3,2-e]pyrazine] | – | – | < 10 | –
